Source: patent publication US5652239A, “Pyridazinedione derivatives useful in treatment of neurological disorders” (Imperial Chemical Company, priority 1991, dated 1997)

Legend:
[1] = system: NMDA receptor-mediated synaptic transmission in hippocampal slices; conditions: reference antagonists, 0 Mg++, general statement; cited from earlier work
[2] = system: neuronal damage in the hippocampus; assay: Test D: ischemia induced by carotid occlusion in the gerbil model; type: in vivo, adult female Mongolian gerbils; conditions: 10 mg/Kg intraperitoneally, 45 minutes before and 5 minutes after occlusion
Description: (§1) The actions of compounds of formula I as antagonists at the glycine receptor of the NMDA receptor complex can be shown by one or more standard tests such as the [^3 H]-glycine binding assay (Test A), by functional assays in vitro such as tests for measuring glutamate-evoked contractions of the guinea pig ileum (Test B) and/or tests for measuring antagonism of NMDA-induced evoked response in hippocampal slices (Test C), and by tests in vivo such as ischemia induced by carotid occlusion in the gerbil model (Test D).
When testing in vivo using the gerbil ischemic model, adult female Mongolian gerbils (50-70 g) are anesthetized with 2 to 3% halothane. The bilateral common carotid arteries at the neck are exposed and occluded with microaneurysm clips. After 10 min (unless specified), the clips are removed and the blood flow through the carotid arteries is restored and the skin is sutured. […] Gross behavioral observations along with motor activity are recorded for 2 hr on the first (24 hr) day following the occlusion. […]
Sections (7 micron) are evaluated from each brain. […] The average brain damage rating score for each group is recorded, and the damage scores of the drug treated group are compared to the vehicle-treated group using Wilcoxon-Rank Sum test. […]

[3] = system: NMDA receptor-mediated synaptic transmission in hippocampal slices; assay: Test C: hippocampal slice test (HST), antagonism of NMDA-induced evoked response; type: cell-based, male Sprague-Dawley rats; conditions: 0 Mg++; for inhibition of the secondary PSs (antagonism) / reversal of the inhibition by D-serine: Example 1 at 15.2 μM, Example 4 at 10 μM; for concentration at which glycine antagonism is exhibited: evaluated at a multiple of the Test B IC50
Description: as §1
The characterization of a compound as a glycine antagonist in the hippocampal slice test (HST) is dependent on (1) the ability of the compound to inhibit NMDA receptor-mediated synaptic transmission in hippocampal slices and (2) the subsequent reversal of these inhibitory effects by D-serine.
The procedure for the HST is as follows. Transverse hippocampal slices are obtained from male Sprague-Dawley rats weighting 80-150 gm. The rats are decapitated and the brains quickly removed and placed in cold Krebs-Ringersolution which contains (in millimolar) NaCl (122.6), NaHCO3 (26.2), KCl (5.4), MgSO4 (2.0), NaH2 PO4 (1.2), CaCl2 (2.0), and D-glucose (10.0). The hippocampus is dissected free from surrounding tissues, and 495 microns thick slices are cut and immediately transferred to a humidified static interface chamber with a 95% O2 :5% CO2 atmosphere at room temperature. Following a 1-hour equilibration period, slices are placed one at a time into a small perfusion chamber where they are completely submerged in continuously flowing oxygenated 2 millimolar Mg++ perfusate (4 mL/min) at 33° C. and allowed to equilibrate for 10 to 15 min.
For the electrophysiology part of the experiments, bipolar tungsten stimulating electrodes are positioned in the stratum radiatum of the CA3 cell body region of the hippocampus and a single-barrel glass microelectrode filled with Krebs-Ringer solution is positioned in the CA1 cell body region. Low frequency stimulation is then applied to area CA3 which evokes a primary population spike (PS) recorded from CA1. The primary PS represents the summation of a multiple of synaptic potentials mediated via the quisqualate receptor. The stimulus intensity is adjusted to evoke a PS of 1-4 mV amplitude and is maintained at this intensity throughout the experiment.
When the perfusion medium is then changed from 1 millimolar Mg++ to one containing 0 Mg++, the primary PS is followed by the appearance of many secondary PSs. The appearance of the secondary PSs are attributed to the unmasking of NMDA-mediated synaptic events in 0 Mg++. […] The effects of directly acting NMDA and indirectly acting NMDA (ie, glycine) receptor antagonists can also be differentiated by the ability of D-serine to reverse this inhibition.

[4] = biological target: T1, glycine receptor of the NMDA receptor complex (Rattus norvegicus, UniProt P35439); assay: Test A: [^3 H]-glycine binding assay; set-up: species or system male Sprague-Dawley rats; conditions: 20 nanomolar [^3 H]-glycine, rat cortical/hippocampal synaptic membranes, pH 7.1, 30 minutes at 4° C.
T1 construct: neuronal synaptic membranes are prepared from adult (about 250 g) male Sprague-Dawley rats; from tissue; host or cells: cerebral cortices and hippocampi of adult male Sprague-Dawley rats, synaptic membranes
Description: as §1
In the [^3 H]-glycine binding assay, neuronal synaptic membranes are prepared from adult (about 250 g) male Sprague-Dawley rats. Freshly dissected cortices and hippocampi are homogenized in 0.32M sucrose (110 mg/mL). Synaptosomes are isolated by centrifugation (1000 xg, 10 min), the supernatant is pelleted (20,000 xg, 20 min) and resuspended in double-distilled water. The suspension was centrifuged for 20 minutes at 8,000 xg. The resulting […] and buffy coat are washed twice (48,000 xg, 10 mins, resuspension in double-deionized water). The final pellet is quickly frozen (dry ice/ethanol bath) under double-deionized water and stored at -70° C.
On the day of the experiment, thawed synaptic membranes are homogenized with a Brinkmann Polytron (™, Brinkmann Instruments, Westbury, N.Y.) tissue homogenizer in 50 millimolar tris(hydroxymethyl)aminomethane citrate, pH 7.1. The membranes are incubated with 0.04% Sufact-AMPS X100 (™, Pierce, Rockford, Ill.) in buffer for 20 minutes at 37° C. and washed six times by centrifugation (48,000 xg, 10 min) and resuspended in buffer. The final pellet is homogenized at 200 mg wet weight/mL of the buffer for the binding assay.
For [^3 H]-glycine binding at the N-methyl-D-aspartate receptor, 20 nanomolar [^3 H]-glycine (40-60 Ci/mmol, New England Nuclear, Boston, Mass.) is incubated with the membranes suspended in 50 millimolar tris (hydroxymethyl)aminomethane citrate, pH 7.1 for 30 minutes at 4° C. Glycine, 1 millimolar, is used to define the nonspecific binding. […] Radioactivity is estimated by liquid scintillation counting. […]

[5] = system: glutamate-evoked contractions of the guinea pig ileum; assay: Test B: glutamate-evoked contractions of the guinea pig ileum; type: cell-based; conditions: Cavia porcellus; twitch responses evoked with 100 micromolar glutamate
Description: as §1
For glutamate-evoked contractions of the guinea pig ileum, the methodology is as described previously (Luzzi et. al., Br. J. Pharmacol., 95, 1271-1277 (1989)). The longitudinal muscle and associated myenteric plexus are removed and placed in oxygenated modified Krebs-Henseleit solution (118 millimolar NaCl, 4.7 millimolar KCl, 2.5 millimolar CaCl2, 1.2 millimolar KH2 PO4, 25 millimolar NaHCO3, and 11 millimolar glucose). Tissues are suspended on glass rods in organ baths under a resting tension of 0.5 g. After an initial depolarization with 80 millimolar potassium ion to remove possible blockade of the NMDA receptor channel complex with magnesium ion, twitch responses are evoked with 100 micromolar glutamate. Isometric mechanical responses are recorded. Tissues are equilibrated for at least 2 hours prior to addition of compounds.
A dose response curve for the effect of the unknown on the magnitude of the glutamate-evoked contractions is generated. Glutamate-evoked contractions are generated at 20 minute intervals, with the test compound added 5 minutes before the glutamate. The magnitude of the contraction with each dose of the unknown is expressed relative to the control, the third contraction evoked by 100 micromolar glutamate alone in the same tissue bath. The IC50 is obtained from a least-squares regression of a logit-log transformation of the data.
After the last contraction for the dose-response curve, 100 micromolar glycine is added to the bath 10 minutes after the previous addition of glutamate. […]

Row | Compound | reversal of the inhibition of the secondary PSs by D-serine [1] | IC50 [4] | IC50 [5] | further results
1 | O=C(O)c1cc(O)c2ccc(Cl)cc2n1 [7-chlorokynurenic acid] | reversed by D-serine |  |  | inhibition of the secondary PSs [1]: inhibit the secondary PSs
2 | C[C@]12N[C@H](Cc3ccccc31)c1ccccc12 [MK-801] | not reversed by D-serine |  |  | 
3 | NC1CCN(O)C1=O (stereo not shown) [HA-966] | reversed by D-serine |  |  | inhibition of the secondary PSs [1]: inhibit the secondary PSs
4 | O=c1[nH][nH]c(=O)c2c1[nH]c1cc(Cl)cc(Cl)c12 [Example 4] |  | 0.33 µM | 6.4 µM | neuroprotection (relative to sham-operated control) [2]: over 75%; inhibition of the secondary PSs (antagonism) [3]: antagonist; reversal of the inhibition by D-serine [3]: reversible by D-serine; concentration at which glycine antagonism is exhibited [3]: 10 µM
5 | O=C(O)C1CN(CCCP(=O)(O)O)CCN1 (stereo not shown) [CPP] | not reversed by D-serine |  |  | 
6 | c1ccc(C2(N3CCCCC3)CCCCC2)cc1 [PCP] | not reversed by D-serine |  |  | 
7 | O=c1[nH][nH]c(=O)c2c1[nH]c1cc(C(F)(F)F)cc(C(F)(F)F)c12 [Example 7, 7,9-Ditrifluoromethylpyridazino[4,5-b]indole-1,4-dione] |  | 2.7 µM | 69 µM | 
8 | NC(CCCP(=O)(O)O)C(=O)O (stereo not shown) [APV] | not reversed by D-serine |  |  | 
9 | O=c1[nH][nH]c(=O)c2c1[nH]c1cc(Cl)ccc12 [Example 1] |  | 0.55 µM | 13 µM | neuroprotection (relative to sham-operated control) [2]: 34%; inhibition of the secondary PSs (antagonism) [3]: antagonist; reversal of the inhibition by D-serine [3]: reversible by D-serine; concentration at which glycine antagonism is exhibited [3]: 15.2 µM
